# What was measured:
# [1] = system: rat model of transient middle cerebral artery occlusion; assay: Rat t-MCAO: brain infarct size (TTC staining, ImageJ); type: in vivo; details: for Relative brain infarct volume on Day 7 (%) (mean + SD) / percentage change of relative brain infarct volume on Day 7 vs the control group: repeated administration (7 days); for efficacy when administered as monotherapies: low doses, monotherapy
# Procedure: (§1) Test compounds were administrated intravenously 20 minutes before reperfusion and then twice a day thereafter for six consecutive days. The modified neurological severity score (NSS) was graded on a scale of 0 to 18 (in which normal score was 0 and maximal deficit score was represented by 18), on Study Day 2 (one day following surgery) and on Study Day 7 (7 days post-surgery and before study termination); it included a set of clinical-neurological tests (composite of motor, sensory, reflex and balance tests). At study termination brains were harvested, sliced into five 2 mm thick coronal sections and stained with triphenyl tetrazolium chloride (TTC) for infarct size measurement using ImageJ program. Morbidity, mortality, body weight and clinical observation were also recorded. […] The statistical significance (P) of treated groups vs the untreated control group was determined using two-way ANOVA followed by Bonferroni post hoc test, using GraphPad Prism 5 program.
# (§2) Due to mortality in some of the groups, the numbers within the groups were adjusted to have sufficient animals in all the groups.
# (§3) In study Part II, a total of 86 SD male rats (270-320 gr upon arrival) were divided into 9 groups (7 or 15 rats per treated group and 6 rats in the control group). Due to mortality in some of the groups, the numbers within the groups were adjusted to have sufficient animals in all the groups.
# [2] = system: rat model of transient middle cerebral artery occlusion; assay: Rat t-MCAO: modified neurological severity score (NSS), scale 0 to 18; type: in vivo; details: for modified neurological severity score (NSS) compared with the control group on Day 2 / modified neurological severity score (NSS) compared with the control group on Day 7: monotherapy; for Modified NSS on Day 2 (mean + SD) / Modified NSS on Day 7 (mean + SD) / percentage change of Modified NSS on Day 2 vs the control group / percentage change of Modified NSS on Day 7 vs the control group: repeated administration (7 days)
# Procedure: as §1, §2, §3
# [3] = system: rat thromboembolic model of stroke; details: continuous infusion (75 ng/h), at 7 days post middle cerebral artery occlusion; cited from earlier work
# [4] = system: rat model of stroke (middle cerebral artery occlusion); details: 10 μg/kg IP loading dose plus 200 ng/h sc infusion beginning 4.5 h or 10 h after onset of ischemia; cited from earlier work
# [5] = Treatment I: glibenclamide 1 μg/Kg iv
# [6] = Treatment J: glibenclamide 3 μg/Kg iv
# [7] = Treatment K: glibenclamide 10 μg/Kg iv
# [8] = Treatment L: glibenclamide 30 μg/Kg iv
# [9] = lowest doses (treatments A, E and I)
# [10] = Treatment F: potassium canrenoate 1 mg/Kg iv
# [11] = Treatment G: potassium canrenoate 3 mg/Kg iv
# [12] = Treatment H: potassium canrenoate 10 mg/Kg iv
structure (smiles),measurement,setting,value
"COc1ccc(Cl)cc1C(=O)NCCc1ccc(S(=O)(=O)NC(=O)NC2CCCCC2)cc1 [GLIBENCLAMIDE, 5-chloro-N-[2-[4-(cyclohexylcarbamoyl-sulfamoyl)phenyl]ethyl]-2-methoxybenzamide]",Relative brain infarct volume on Day 7 (%) (mean + SD),[1]; [5],33 ± 10%
same,percentage change of relative brain infarct volume on Day 7 vs the control group,[1]; [5],[−21%; NS]
same,Relative brain infarct volume on Day 7 (%) (mean + SD),[1]; [6],19 ± 9%
same,percentage change of relative brain infarct volume on Day 7 vs the control group,[1]; [6],[−55%; ***]
same,Relative brain infarct volume on Day 7 (%) (mean + SD),[1]; [7],16 ± 9%
same,percentage change of relative brain infarct volume on Day 7 vs the control group,[1]; [7],[−62%; ***]
same,Relative brain infarct volume on Day 7 (%) (mean + SD),[1]; [8],17 ± 8%
same,percentage change of relative brain infarct volume on Day 7 vs the control group,[1]; [8],[−60%; ***]
same,efficacy when administered as monotherapies,[1],ineffective
same,modified neurological severity score (NSS) compared with the control group on Day 2,[2]; 3 μg/kg dose (treatment J),did not show a statistically significant decrease
same,Modified NSS on Day 2 (mean + SD),[2]; [5],14 ± 1
same,Modified NSS on Day 7 (mean + SD),[2]; [5],12 ± 1
same,percentage change of Modified NSS on Day 2 vs the control group,[2]; [5],[0%; NS]
same,percentage change of Modified NSS on Day 7 vs the control group,[2]; [5],[−8%; NS]
same,Modified NSS on Day 2 (mean + SD),[2]; [6],13 ± 3
same,Modified NSS on Day 7 (mean + SD),[2]; [6],10 ± 1
same,percentage change of Modified NSS on Day 2 vs the control group,[2]; [6],[−7%; NS]
same,percentage change of Modified NSS on Day 7 vs the control group,[2]; [6],[−23%; *]
same,Modified NSS on Day 2 (mean + SD),[2]; [7],11 ± 3
same,Modified NSS on Day 7 (mean + SD),[2]; [7],8 ± 2
same,percentage change of Modified NSS on Day 2 vs the control group,[2]; [7],[−21%; **]
same,percentage change of Modified NSS on Day 7 vs the control group,[2]; [7],[−38%; ***]
same,Modified NSS on Day 2 (mean + SD),[2]; [8],11 ± 3
same,Modified NSS on Day 7 (mean + SD),[2]; [8],8 ± 1
same,percentage change of Modified NSS on Day 2 vs the control group,[2]; [8],[−21%; **]
same,percentage change of Modified NSS on Day 7 vs the control group,[2]; [8],[−38%; ***]
same,modified neurological severity score (NSS) compared with the control group on Day 2,[2]; [9],did not show a statistically significant decrease
same,modified neurological severity score (NSS) compared with the control group on Day 7,[2]; [9],did not show a statistically significant decrease
same,"reduction of cerebral edema, infarct volume and mortality",[3],50%
same,hemispheric swelling at 24 h and 48-h mortality,[4],significantly reduced
"C[C@]12CCC(=O)C=C1C=C[C@@H]1[C@@H]2CC[C@@]2(C)[C@H]1CC[C@@]2(O)CCC(=O)[O-].[K+] [POTASSIUM CANRENOATE, potassium 3-[(8R,9S,10R,13S,14S,17R)-17-hydroxy-10,13-dimethyl-3-oxo-2,8,9,11,12,14,15,16 octahydro-1H-cyclopenta[a]phenanthren-17-yl]propanoate]",Relative brain infarct volume on Day 7 (%) (mean + SD),[1]; [10],15 ± 6%
same,percentage change of relative brain infarct volume on Day 7 vs the control group,[1]; [10],[−64%; ***]
same,Relative brain infarct volume on Day 7 (%) (mean + SD),[1]; [11],28 ± 11%
same,percentage change of relative brain infarct volume on Day 7 vs the control group,[1]; [11],[−33%; **]
same,Relative brain infarct volume on Day 7 (%) (mean + SD),[1]; [12],12 ± 3%
same,percentage change of relative brain infarct volume on Day 7 vs the control group,[1]; [12],[−71%; ***]
same,efficacy when administered as monotherapies,[1],ineffective
same,Modified NSS on Day 2 (mean + SD),[2]; [10],12 ± 3
same,Modified NSS on Day 7 (mean + SD),[2]; [10],8 ± 1
same,percentage change of Modified NSS on Day 2 vs the control group,[2]; [10],[−14%; *]
same,percentage change of Modified NSS on Day 7 vs the control group,[2]; [10],[−38%; ***]
same,Modified NSS on Day 2 (mean + SD),[2]; [11],11 ± 2
same,Modified NSS on Day 7 (mean + SD),[2]; [11],10 ± 2
same,percentage change of Modified NSS on Day 2 vs the control group,[2]; [11],[−21%; *]
same,percentage change of Modified NSS on Day 7 vs the control group,[2]; [11],[−23%; *]
same,Modified NSS on Day 2 (mean + SD),[2]; [12],10 ± 1
same,Modified NSS on Day 7 (mean + SD),[2]; [12],8 ± 1
same,percentage change of Modified NSS on Day 2 vs the control group,[2]; [12],[−29%; **]
same,percentage change of Modified NSS on Day 7 vs the control group,[2]; [12],[−38%; ***]
same,modified neurological severity score (NSS) compared with the control group on Day 2,[2]; [9],did not show a statistically significant decrease
same,modified neurological severity score (NSS) compared with the control group on Day 7,[2]; [9],did not show a statistically significant decrease

# — US20220265776A1, “COMBINATION” (GENESIS PHARMA SA, priority 2019, published 2022)
